Assays:
[1] = biological target: Recombinant human Ire1-alpha (Homo sapiens, UniProt O75460); experiment: In vitro inhibition assay, cleavage of 32P-stem-loop RNA by human Ire1; assay type: biochemical; settings: in vitro cleavage of 32P-stem-loop RNA by human Ire1, AD series; Control (no inhibitor) 8.8310e−3
Experimental: Recombinant human […]) was mixed with reaction buffer, inhibitor solution in DMSO, and ^32P-labeled RNA substrate having sequence 5'-[…] NO:1). Reactions were conducted at 30° C. and initiated by adding the RNA to reaction pre-mix containing all the components minus the RNA. […] (The reaction mixture may be modified by using different components or concentrations, different RNA substrate, or different Ire1 protein construct.) At time intervals (0 seconds, 10 seconds, 30 seconds, and 3 minutes), 1 μl aliquots of reaction mixture were taken and quenched in 10 M Urea, 0.1% SDS. Samples were analyzed by denaturing polyacrylamide gel electrophoresis and quantified using Typhoon phosphorImager. […] Reactions with Irestatin and exemplary compounds were conducted analogously. Irestatin was a gift obtained from the SPECS screen available as 5 mM solution in DMSO at UCSF small molecule discovery center.

yIre1 = biological target: T1, yIre1 (Saccharomyces cerevisiae, UniProt P32361); experiment: RNase cleavage assay (yIre1 activation); assay type: biochemical, yeast; settings: yIre1 RNA cleavage, 30° C., 2 mM ADP; Control (no inhibitor) 0.000504
T1 sequence (P32361 19-1115): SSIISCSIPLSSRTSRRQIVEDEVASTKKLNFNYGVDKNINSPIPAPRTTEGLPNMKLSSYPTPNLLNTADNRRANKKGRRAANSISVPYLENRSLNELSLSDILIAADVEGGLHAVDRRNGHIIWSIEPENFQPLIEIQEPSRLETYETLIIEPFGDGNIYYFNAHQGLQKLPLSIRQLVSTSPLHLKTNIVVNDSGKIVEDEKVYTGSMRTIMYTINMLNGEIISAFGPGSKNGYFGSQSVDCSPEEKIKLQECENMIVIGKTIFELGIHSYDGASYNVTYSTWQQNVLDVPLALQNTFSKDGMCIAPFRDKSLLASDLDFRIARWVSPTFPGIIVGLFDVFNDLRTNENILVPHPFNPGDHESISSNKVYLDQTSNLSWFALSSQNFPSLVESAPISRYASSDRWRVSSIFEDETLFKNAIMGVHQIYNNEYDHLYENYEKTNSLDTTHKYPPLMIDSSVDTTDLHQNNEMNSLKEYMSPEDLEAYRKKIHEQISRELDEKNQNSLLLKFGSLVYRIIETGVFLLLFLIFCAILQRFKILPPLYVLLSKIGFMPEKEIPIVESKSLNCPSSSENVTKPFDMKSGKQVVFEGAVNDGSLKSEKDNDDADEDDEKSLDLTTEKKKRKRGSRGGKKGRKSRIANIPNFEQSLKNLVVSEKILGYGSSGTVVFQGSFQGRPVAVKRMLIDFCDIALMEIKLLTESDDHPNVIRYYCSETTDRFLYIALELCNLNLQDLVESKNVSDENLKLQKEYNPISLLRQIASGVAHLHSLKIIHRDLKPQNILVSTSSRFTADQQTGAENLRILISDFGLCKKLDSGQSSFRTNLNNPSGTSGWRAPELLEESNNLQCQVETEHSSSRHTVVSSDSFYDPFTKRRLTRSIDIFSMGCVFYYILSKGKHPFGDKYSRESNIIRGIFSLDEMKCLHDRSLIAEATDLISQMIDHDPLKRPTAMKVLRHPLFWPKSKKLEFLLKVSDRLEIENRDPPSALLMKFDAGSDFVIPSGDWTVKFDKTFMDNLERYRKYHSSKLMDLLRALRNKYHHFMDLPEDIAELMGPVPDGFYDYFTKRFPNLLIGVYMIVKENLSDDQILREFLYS
Experimental: RNA cleavage reactions were conducted at 30° C. in buffer containing 20 mM HEPES (pH 7.5), 70 mM NaCl, 2 mM ADP (pH 7.0), 2 mM Mg(OAc)2, 5 mM DTT, 5% glycerol, less than 1 nM ^32p-labeled RNA substrate, and 3 nM-[…] Ire1. Reaction solutions and buffers were designed using Biochem Lab Solutions 3.5. Reactions were prepared such that 1 μl of RNA was added to 9 μl of pre-warmed reaction mixture containing all components except RNA. Typically, 3-10 minute time courses were collected starting from 5 seconds for the first time point. At time intervals, 1 μl of solution was withdrawn from each reaction and mixed with 6 μl stop solution containing 10 M urea, 0.1% SDS, 0.1 mM EDTA, 0.05% xylene cyanol, and 0.05% bromophenol blue. The samples were separated by a denaturing 10% PAGE and exposed on a phosphor storage screen. The screens were scanned on a Storm or a Typhoon instrument and quantified using ImageQuant 5.0 or GelQuant.NET 1.4 programs. The data were plotted and fit in SigmaPlot 6.0.

hIre1 = hIre1 (Homo sapiens, UniProt O75460); experiment: Titrations of Ire1 inhibitors to measure Ki using 1 μM hIre1; assay type: biochemical; settings: 1 μM hIre1, 5′-32p-HP21, 30° C.
Experimental: Recombinant human Ire1-alpha (1 μM f/c) was mixed with reaction buffer, inhibitor solution in DMSO, and ^32P-labeled RNA substrate having sequence 5′-UGCACCUCUGCAGCAGGUGCA (SEQ ID NO:1). Reactions were conducted at 30° C. and initiated by adding the RNA to reaction pre-mix containing all the components minus the RNA. The final reaction contained: 20 mM HEPES pH 7, 70 mM NaCl, 2 mM MgCl2, 5% glycerol, 4 mM DTT, 10% DMSO, 1 μM Ire1 and <1 nM 32P-labeled RNA. (The reaction mixture may be modified by using different components or concentrations, different RNA substrate, or different Ire1 protein construct.)
At time intervals (0 seconds, ˜10 seconds, ˜30 seconds, and ˜3 minutes), 1 μl aliquots of reaction mixture were taken and quenched in 10 M Urea, 0.1% SDS. Samples were analyzed by denaturing polyacrylamide gel electrophoresis and quantified using Typhoon phosphorImager.
Inhibition was measured by the extent of RNA cleavage slowdown in the presence of inhibitor (0.3-100 μM) compared to reaction containing no inhibitors.

[2] = system: Ire1 (XBP-1 YFP reporter in IMR90 cells); experiment: Cell-based IRE1 inhibition assay with human fibroblasts (IMR90), XBP-1 YFP reporter; settings: compound 2 uM, 8 hrs
Experimental: FIG. 6 depicts histogram results of cell-based Ire1 inhibition assay employing IMR90 human diploid fibroblastic cell line. […] Induction of XBP-1 YFP reporter was assayed by fluorescence microscopy. See Example 6. Test compounds (left to right): DMSO; Tg; bortezomib; MG132; Irestatin; AD71c; AD73c; AD58; AD59. Ordinate: relative fluorescence (proportional to Ire1 activity.)
A cell-based assay of Ire1 inhibition was conducted on human diploid fibroblastic cells (IMR90) expressing an XBP-1 YFP (yellow fluorescent protein) reporter. The effect of test compound or control on UPR induction was assayed by fluorescence microscopy to measure the fluorescence of YFP expressed in a Ire1-dependent manner. The XBP1-YFP reporter only produces YFP after a frameshift produced by splicing of its intron by activated IRE1. As known in the art, higher fluorescence intensity means higher Ire1 and UPR activity. Conversely, lower fluorescence intensity means inhibitions of Ire1 and UPR.
IMR90 stable retroviral transductants expressing an XBP-1 YTP reporter were plated in a 96 well clear bottom plate and allowed to recover overnight (80% confluency). […] Induction of the XBP1-YFP reported was assayed by fluorescence microscopy (GE Healthcare IN Cell Analyzer 2000). The number of YFP cells and the total number of cells, as judged by nuclear staining (Hoechst) were counted in each well. […]

Recombinant human Ire1-alpha, sequence (O75460 19-977): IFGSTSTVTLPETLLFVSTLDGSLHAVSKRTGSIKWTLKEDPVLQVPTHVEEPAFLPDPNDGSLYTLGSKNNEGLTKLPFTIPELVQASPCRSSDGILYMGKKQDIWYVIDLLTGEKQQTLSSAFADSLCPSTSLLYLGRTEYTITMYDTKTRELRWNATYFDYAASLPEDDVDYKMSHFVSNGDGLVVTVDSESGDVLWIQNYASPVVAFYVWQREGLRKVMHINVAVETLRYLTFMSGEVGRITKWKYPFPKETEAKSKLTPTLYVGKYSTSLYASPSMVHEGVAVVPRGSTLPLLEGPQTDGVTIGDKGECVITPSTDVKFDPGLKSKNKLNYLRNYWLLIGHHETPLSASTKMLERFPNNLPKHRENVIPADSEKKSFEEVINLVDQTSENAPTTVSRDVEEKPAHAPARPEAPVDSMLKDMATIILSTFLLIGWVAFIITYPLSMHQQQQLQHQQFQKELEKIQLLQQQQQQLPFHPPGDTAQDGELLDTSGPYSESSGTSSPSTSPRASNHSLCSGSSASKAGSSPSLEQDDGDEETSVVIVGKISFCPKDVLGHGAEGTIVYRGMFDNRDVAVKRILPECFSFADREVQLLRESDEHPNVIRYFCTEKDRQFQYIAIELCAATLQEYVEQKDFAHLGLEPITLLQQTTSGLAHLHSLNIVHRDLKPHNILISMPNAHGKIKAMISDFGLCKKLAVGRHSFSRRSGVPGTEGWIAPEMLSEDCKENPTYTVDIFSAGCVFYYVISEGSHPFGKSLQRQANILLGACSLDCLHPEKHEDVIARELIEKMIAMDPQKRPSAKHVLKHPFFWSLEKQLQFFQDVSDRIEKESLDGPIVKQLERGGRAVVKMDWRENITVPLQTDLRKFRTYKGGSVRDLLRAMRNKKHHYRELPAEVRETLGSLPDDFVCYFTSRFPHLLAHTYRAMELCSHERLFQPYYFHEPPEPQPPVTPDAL
hIre1, sequence (O75460 19-977): as above

- Ire1 activity [1]: 3.0550e−3
- Ire1 activity (yIre1): 0.0001
- Ki (hIre1): ~1000 nM
Compound: Cn1nc(-c2ccc(NC(=O)Nc3cccc(C(F)(F)F)c3)cc2)c2c(N)ncnc21 [AD59, 1-(4-(4-amino-1-methyl-1H-pyrazolo[3,4-d]pyrimidin-3-yl)phenyl)-3-(3-(trifluoromethyl)phenyl)urea]
- inhibition of UPR (XBP-1 YFP reporter) induced by Tg [2]: even more strongly

From patent publication US8980899B2, “Methods of inhibiting Ire1” (The Regents of the University of California, priority 2009, dated 2015)
